Data as given in ChEMBL document CHEMBL5360551, “Exploration of LPS2 agonist binding modes using the combination of a new hydrophobic scaffold and homology modeling” (Eur J Med Chem, 2023).

Key:
[1] = target: Putative P2Y purinoceptor 10 (Mus musculus, UniProt Q8BFU7); experiment: Agonist activity at mouse LPS2/P2Y10 transfected in HEK293-A cells co-transfected with AP-TGFalpha assessed as AP-TGFalpha release by TGFalpha shedding assay; format: functional, cell-based
[2] = target: Putative P2Y purinoceptor 10 (Mus musculus) (UniProt Q8BFU7); experiment: Agonist activity at mouse LPS2/P2Y10 transfected in HEK293-A cells co-transfected with AP-TGFalpha assessed as AP-TGFalpha release by TGFalpha shedding assay relative to LysoPS; format: functional, cell-based; settings: filed as agonist
[3] = target: T1, Putative P2Y purinoceptor 10 (Homo sapiens, UniProt O00398); experiment: Agonist activity at human LPS2/P2Y10 transfected in HEK293-A cells co-transfected with AP-TGFalpha assessed as AP-TGFalpha release by TGFalpha shedding assay; format: functional, cell-based
[4] = target: Probable G-protein coupled receptor 34 (Mus musculus) (UniProt Q9R1K6); experiment: Agonist activity at mouse LPS1/GPR34 transfected in HEK293-A cells co-transfected with AP-TGFalpha assessed as AP-TGFalpha release by TGFalpha shedding assay relative to LysoPS; format: functional, cell-based; settings: filed as agonist
[5] = target: Probable G-protein coupled receptor 34 (Mus musculus, UniProt Q9R1K6); experiment: Agonist activity at mouse LPS1/GPR34 transfected in HEK293-A cells co-transfected with AP-TGFalpha assessed as AP-TGFalpha release by TGFalpha shedding assay; format: functional, cell-based
[6] = target: Putative P2Y purinoceptor 10 (Homo sapiens, UniProt O00398, V159F); experiment: Agonist activity at N-terminal FLAG-tagged human LPS2/P2Y10 V159F mutant transfected in HEK293-A cells co-transfected with AP-TGFalpha assessed as AP-TGFalpha release by TGFalpha shedding assay; format: cell-based
[7] = target: T1, Putative P2Y purinoceptor 10; experiment: Agonist activity at wildtype N-terminal FLAG-tagged human LPS2/P2Y10 transfected in HEK293-A cells co-transfected with AP-TGFalpha assessed as AP-TGFalpha release by TGFalpha shedding assay; format: functional, cell-based
[8] = test system: Putative P2Y purinoceptor 10 (Homo sapiens), O00398 [A163F]; experiment: Agonist activity at N-terminal FLAG-tagged human LPS2/P2Y10 A163F mutant transfected in HEK293-A cells co-transfected with AP-TGFalpha assessed as AP-TGFalpha release by TGFalpha shedding assay relative to LysoPS; format: cell-based; settings: filed as agonist
[9] = target: Putative P2Y purinoceptor 10 (Homo sapiens, UniProt O00398, A163F); experiment: Agonist activity at N-terminal FLAG-tagged human LPS2/P2Y10 A163F mutant transfected in HEK293-A cells co-transfected with AP-TGFalpha assessed as AP-TGFalpha release by TGFalpha shedding assay; format: cell-based
[10] = test system: Putative P2Y purinoceptor 10 (Homo sapiens), O00398 [V159F]; experiment: Agonist activity at N-terminal FLAG-tagged human LPS2/P2Y10 V159F mutant transfected in HEK293-A cells co-transfected with AP-TGFalpha assessed as AP-TGFalpha release by TGFalpha shedding assay relative to LysoPS; format: cell-based; settings: filed as agonist
[11] = target: T1, Putative P2Y purinoceptor 10; experiment: Agonist activity at human LPS2/P2Y10 transfected in HEK293-A cells co-transfected with AP-TGFalpha assessed as AP-TGFalpha release by TGFalpha shedding assay relative to LysopPS; format: functional, cell-based; settings: filed as agonist
[12] = target: T1, Putative P2Y purinoceptor 10; experiment: Agonist activity at wildtype N-terminal FLAG-tagged human LPS2/P2Y10 transfected in HEK293-A cells co-transfected with AP-TGFalpha assessed as AP-TGFalpha release by TGFalpha shedding assay relative to LysoPS; format: functional, cell-based; settings: filed as agonist

Chain of Putative P2Y purinoceptor 10 (Mus musculus) (Q8BFU7 whole entry): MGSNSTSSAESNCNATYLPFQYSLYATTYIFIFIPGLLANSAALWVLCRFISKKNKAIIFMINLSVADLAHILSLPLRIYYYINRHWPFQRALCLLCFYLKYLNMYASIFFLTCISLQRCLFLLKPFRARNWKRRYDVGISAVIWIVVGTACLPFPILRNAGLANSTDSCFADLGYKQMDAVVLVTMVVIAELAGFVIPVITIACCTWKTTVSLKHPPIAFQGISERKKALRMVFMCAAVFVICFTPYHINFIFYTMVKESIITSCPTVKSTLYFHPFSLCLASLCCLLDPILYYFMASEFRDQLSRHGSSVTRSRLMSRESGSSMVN
Chain of Putative P2Y purinoceptor 10 (Mus musculus, UniProt Q8BFU7) (Q8BFU7 whole entry): as above
Chain of Probable G-protein coupled receptor 34 (Mus musculus) (Q9R1K6 whole entry): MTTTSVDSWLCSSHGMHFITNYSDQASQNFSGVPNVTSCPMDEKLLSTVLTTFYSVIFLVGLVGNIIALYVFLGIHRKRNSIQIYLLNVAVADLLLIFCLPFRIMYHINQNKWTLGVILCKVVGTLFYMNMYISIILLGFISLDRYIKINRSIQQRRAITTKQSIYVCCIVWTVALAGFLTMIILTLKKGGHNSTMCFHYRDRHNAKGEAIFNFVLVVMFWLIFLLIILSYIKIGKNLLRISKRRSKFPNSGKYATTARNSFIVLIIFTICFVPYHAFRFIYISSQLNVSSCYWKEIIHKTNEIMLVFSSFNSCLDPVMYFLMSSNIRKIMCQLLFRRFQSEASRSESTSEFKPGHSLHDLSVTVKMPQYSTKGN
Chain of Probable G-protein coupled receptor 34 (Q9R1K6 whole entry): as above
Chain of Putative P2Y purinoceptor 10 (Homo sapiens), O00398 [V159F] (O00398 whole entry V159F): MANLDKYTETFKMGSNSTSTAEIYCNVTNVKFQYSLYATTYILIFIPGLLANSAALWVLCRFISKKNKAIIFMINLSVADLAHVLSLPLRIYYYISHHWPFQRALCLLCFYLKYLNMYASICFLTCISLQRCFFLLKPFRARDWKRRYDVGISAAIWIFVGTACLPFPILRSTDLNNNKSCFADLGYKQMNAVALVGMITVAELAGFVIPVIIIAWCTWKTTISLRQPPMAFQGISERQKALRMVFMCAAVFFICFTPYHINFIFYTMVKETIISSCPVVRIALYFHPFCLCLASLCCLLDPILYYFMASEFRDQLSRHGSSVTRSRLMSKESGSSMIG
Chain of Putative P2Y purinoceptor 10 (Homo sapiens, UniProt O00398, V159F) (O00398 whole entry V159F): as above
Chain of Putative P2Y purinoceptor 10 (Homo sapiens), O00398 [A163F] (O00398 whole entry A163F): as the sequence (O00398 whole entry V159F) above, with F159V, A163F counted along it
Chain of Putative P2Y purinoceptor 10 (Homo sapiens, UniProt O00398, A163F) (O00398 whole entry A163F): as the sequence (O00398 whole entry V159F) above, with F159V, A163F counted along it
T1 sequence (O00398 whole entry): as the sequence (O00398 whole entry V159F) above, with F159V counted along it

Row | EC50 ([1]; read-out: EC50) [nM] | Emax [2] [%] | SMILES | also measured
1 | 210 | 78 | Cc1cccc(Oc2ccccc2CCC(=O)OCCCOP(=O)(O)OC[C@H](N)C(=O)O)c1 | –
2 | 1.6 | 59 | Nc1ccc(Oc2ccccc2CCC(=O)OCCCOP(=O)(O)OC[C@H](N)C(=O)O)cc1 | EC50 ([1]; read-out: pEC50 (converted)): 1580 nM
3 | 240 | 105 | N[C@@H](COP(=O)(O)OCCCCCOC(=O)CC(=O)Cc1ccccc1Oc1ccc(-c2ccccc2)cc1)C(=O)O | –
4 | 340 | 114 | Cc1cccc(COc2ccccc2CCC(=O)OCCCOP(=O)(O)OC[C@H](N)C(=O)O)c1 | –
5 | 3 | 78 | CC(C)(C)c1ccc(-c2ccc(Oc3ccccc3CCC(=O)OCCCOP(=O)(O)OC[C@H](N)C(=O)O)cc2)cc1 | –
6 | 29 | 109 | N[C@@H](COP(=O)(O)OCCCOC(=O)CCc1ccccc1Oc1cccc(-c2ccccc2)c1)C(=O)O | EC50 ([3]; read-out: EC50): 62 nM; Emax [11]: 133%
7 | 200 | 125 | CC(C)(C)c1cc(Oc2ccccc2CCC(=O)OCCCOP(=O)(O)OC[C@H](N)C(=O)O)cc(C(C)(C)C)c1 | –
8 | 200 | 112 | N[C@@H](COP(=O)(O)OCCOC(=O)CC(=O)CC(=O)Cc1ccccc1Oc1ccc(-c2ccccc2)cc1)C(=O)O | –
9 | 810 | 72 | CCc1ccc(Oc2ccccc2CCC(=O)OCCCOP(=O)(O)OC[C@H](N)C(=O)O)cc1 | –
10 | 90 | 63 | N[C@@H](COP(=O)(O)OCCCOC(=O)CCc1ccccc1OCc1cccc(Oc2ccccc2)c1)C(=O)O | EC50 ([1]; read-out: pEC50 (converted)): 93.3 nM; Emax [4]: 124%; EC50 ([5]; hek293-a): 220 nM
11 | 1.5 | 94 | CCCCCCCCCCCOc1ccccc1CCC(=O)OCC(F)(F)COP(=O)(O)OC[C@H](N)C(=O)O | –
12 | 3.7 | 70 | N[C@@H](COP(=O)(O)OCCCOC(=O)CCc1ccccc1Oc1ccc(-c2ccc(-c3ccccc3)cc2)cc1)C(=O)O | EC50 ([3]; read-out: EC50): 8 nM; Emax [11]: 89%
13 | 9.2 | 111 | N[C@@H](COP(=O)(O)OCCCOC(=O)CCc1ccccc1Oc1ccc(-c2ccccc2)cc1)C(=O)O | EC50 ([3]; read-out: EC50): 71 nM; EC50 [6]: 26 nM; EC50 [7]: 53 nM; Emax [12]: 125%; Emax [11]: 133%; Emax [8]: 122%; EC50 [9]: 33 nM; Emax [10]: 131%
14 | 28 | 109 | CC(C)(C)c1cc(-c2cccc(COc3ccccc3CCC(=O)OCCCOP(=O)(O)OC[C@H](N)C(=O)O)c2)cc(C(C)(C)C)c1 | EC50 [5]: > 3000 nM
15 | 18 | 92 | CCc1ccccc1-c1ccc(Oc2ccccc2CCC(=O)OCCCOP(=O)(O)OC[C@H](N)C(=O)O)cc1 | –
16 | 23 | 121 | N[C@@H](COP(=O)(O)OCCCOC(=O)CCc1ccccc1Oc1cc(-c2ccccc2)cc(-c2ccccc2)c1)C(=O)O | EC50 ([3]; read-out: EC50): 120 nM; Emax [11]: 152%

The next lines start with the compound.

Row | SMILES | EC50 ([1]; read-out: EC50) [nM] | Emax [2] [%] | also measured
17 | N[C@@H](COP(=O)(O)OCCCCOC(=O)CC(=O)CC(=O)Cc1ccccc1Oc1ccc(-c2ccccc2)cc1)C(=O)O | 31 | 118 | –
18 | N[C@@H](COP(=O)(O)OCCCOC(=O)CCc1ccccc1Oc1ccccc1-c1ccccc1)C(=O)O | 890 | 105 | EC50 ([3]; read-out: EC50): > 3 nM; EC50 ([3]; read-out: pEC50 (converted)): 5130 nM
19 | N[C@@H](COP(=O)(O)OCCCOC(=O)CCc1ccccc1Oc1ccc(-c2ccc(C34C[C@H]5C[C@@H](C3)C[C@@H](C4)C5)cc2)cc1)C(=O)O | 5.3 | 68 | –
20 | Cc1ccccc1Oc1ccccc1CCC(=O)OCCCOP(=O)(O)OC[C@H](N)C(=O)O | 140 | 70 | –
21 | CC(C)(C)c1ccc(-c2cccc(COc3ccccc3CCC(=O)OCCCOP(=O)(O)OC[C@H](N)C(=O)O)c2)cc1 | 35 | 99 | Emax [4]: 107%; EC50 [5]: 950 nM
22 | N[C@@H](COP(=O)(O)OCCCCOC(=O)CC(=O)Cc1ccccc1Oc1ccc(-c2ccccc2)cc1)C(=O)O | 140 | 98 | –
23 | N#Cc1ccc(Oc2ccccc2CCC(=O)OCCCOP(=O)(O)OC[C@H](N)C(=O)O)cc1 | > 3 | – | EC50 ([1]; read-out: pEC50 (converted)): < 3160 nM
24 | CC(C)(C)c1cccc(-c2ccc(Oc3ccccc3CCC(=O)OCCCOP(=O)(O)OC[C@H](N)C(=O)O)cc2)c1 | 14 | 115 | –
25 | Cc1cc(C)cc(Oc2ccccc2CCC(=O)OCCCOP(=O)(O)OC[C@H](N)C(=O)O)c1 | 130 | 114 | –
26 | N[C@@H](COP(=O)(O)OCCCOC(=O)CCc1ccccc1Oc1ccccc1)C(=O)O | 400 | 93 | EC50 [6]: 1500 nM; EC50 [7]: > 3000 nM; Emax [8]: 104%; EC50 [9]: 1600 nM; Emax [10]: 98%
27 | CCCCCCCC/C=C\CCCCCCCC(=O)OCCCOP(=O)(O)OC[C@H](N)C(N)=O | 24 | 112 | EC50 [5]: > 3000 nM
28 | CC(C)(C)c1cccc(Oc2ccccc2CCC(=O)OCCCOP(=O)(O)OC[C@H](N)C(=O)O)c1 | 400 | 113 | –
29 | Cc1cc(C)cc(-c2cccc(COc3ccccc3CCC(=O)OCCCOP(=O)(O)OC[C@H](N)C(=O)O)c2)c1 | 46 | 114 | EC50 [5]: > 3000 nM
30 | N[C@@H](COP(=O)(O)OCCCCCOC(=O)CC(=O)CC(=O)Cc1ccccc1Oc1ccc(-c2ccccc2)cc1)C(=O)O | 100 | 96 | –
31 | N[C@@H](COP(=O)(O)OCCOC(=O)CC(=O)Cc1ccccc1Oc1ccc(-c2ccccc2)cc1)C(=O)O | > 3 | – | EC50 ([1]; read-out: pEC50 (converted)): 6030 nM
32 | N[C@@H](COP(=O)(O)OC1CCCO[C@@H]1COC(=O)CCc1ccccc1OCc1cccc(Oc2ccccc2)c1)C(=O)O (stereo partly drawn) | – | – | Emax [4]: 117%; EC50 [5]: 180 nM
33 | CCc1ccccc1Oc1ccccc1CCC(=O)OCCCOP(=O)(O)OC[C@H](N)C(=O)O | 170 | 78 | –
34 | Cc1ccc(-c2ccc(Oc3ccccc3CCC(=O)OCCCOP(=O)(O)OC[C@H](N)C(=O)O)cc2)cc1 | 11 | 108 | –
35 | CCCCCCCCCCCOc1ccccc1CCC(=O)OCCCOP(=O)(O)OC[C@H](N)C(N)=O | 2.7 | 111 | Emax [4]: 94%; EC50 [5]: 1600 nM
36 | CCCCCCOc1cccc(COc2ccccc2CCC(=O)OCCCOP(=O)(O)OC[C@H](N)C(N)=O)c1 | 7.1 | 113 | EC50 [5]: > 3000 nM
37 | N[C@@H](COP(=O)(O)OCCCOC(=O)CC(=O)Cc1ccccc1Oc1ccc(-c2ccccc2)cc1)C(=O)O | 1.1 | 99 | EC50 ([1]; read-out: pEC50 (converted)): 1070 nM
38 | N[C@@H](COP(=O)(O)OCCCOC(=O)CCc1ccccc1Oc1ccc(C23C[C@H]4C[C@@H](C2)C[C@@H](C3)C4)cc1)C(=O)O | 57 | 107 | EC50 [6]: 270 nM; EC50 [7]: 170 nM; Emax [12]: 120%; Emax [8]: 137%; EC50 [9]: 390 nM; Emax [10]: 128%
39 | N[C@@H](COP(=O)(O)OCCCOC(=O)CCc1ccccc1Oc1ccc(-c2ccccc2-c2ccccc2)cc1)C(=O)O | 6.7 | 87 | EC50 ([3]; read-out: EC50): 100 nM; Emax [11]: 113%
40 | N[C@@H](COP(=O)(O)OCCCOC(=O)CCc1ccccc1OCc1cccc(-c2ccccc2)c1)C(=O)O | 5.7 | 131 | EC50 [5]: > 3000 nM
41 | N[C@@H](COP(=O)(O)OCCCOC(=O)CCc1ccccc1Oc1ccc(O)cc1)C(=O)O | > 3 | – | EC50 ([1]; read-out: pEC50 (converted)): < 3160 nM
42 | Cc1ccc(Oc2ccccc2CCC(=O)OCCCOP(=O)(O)OC[C@H](N)C(=O)O)cc1 | 140 | 88 | EC50 [6]: 660 nM; EC50 [7]: 810 nM; Emax [12]: 114%; Emax [8]: 92%; EC50 [9]: 350 nM; Emax [10]: 117%
43 | CCc1ccc(-c2ccc(Oc3ccccc3CCC(=O)OCCCOP(=O)(O)OC[C@H](N)C(=O)O)cc2)cc1 | 2.6 | 98 | –
44 | CC(C)(C)c1ccc(Oc2ccccc2CCC(=O)OCCCOP(=O)(O)OC[C@H](N)C(=O)O)cc1 | 67 | 123 | EC50 [6]: 250 nM; EC50 [7]: 180 nM; Emax [12]: 119%; Emax [8]: 113%; EC50 [9]: 470 nM; Emax [10]: 131%
